Source: patent US20220370440A1 (Lead Discovery Center GmbH, priority 2018, published 2022)

Legend:
[1] = target: Her2 Exon 20 INSYVMA Ba/F3 (Homo sapiens, UniProt P04626, DUP772-775, cells depend on it); assay: Her2 Exon 20 INSYVMA Ba/F3 CellTiter-Glo; format: cell-based; conditions: CellTiter-Glo, 72 h, read-out: Her2 Exon 20 INSYVMA Ba/F3 CTG IC50
How it was run: (§1)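 Ba/F3 cells were seeded, left 24 h at 37 °C/5% CO2, then exposed to compound dilutions in DMSO for 72 h. Viability was read as ATP luminescence (CellTiter-Glo) and IC50 fitted from dose–response curves; DMSO and 10 μM staurosporine defined the controls, and plates needed Z′ ≥0.5.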

[2] = Metabolic stability in mouse liver microsomes without cofactor NADPH; format: in vitro ADME; conditions: 3 μM test compound, mouse liver microsomes, without NADPH, 50 min, 37° C., LC-MS/MS
How it was run: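 Cofactor-free incubation: no NADPH added to mouse liver microsomes, with compound at 3 μM and 37° C. Remaining parent was quantified by LC-MS/MS at time points up to 50 minutes to track depletion.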

H1975 = H1975 CellTiter-Glo; format: cell-based; conditions: Homo sapiens, NCI-H1975; 72 h compound incubation; read-out: H1975 CTG IC50
How it was run: (§2)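 In this viability format, compound-treated cells sit 72 h at 37° C. before ATP content is quantified by luminescence, and IC50 is taken from the fitted dose-response curve.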

HER2 INS YVMA = target: T1, HER2 INS YVMA (Homo sapiens, UniProt P04626, INS775YVMA); assay: Lance Kinase Activity Assay, HER2 INS YVMA (Her2 Exon 20 INSYVMA Lance); format: biochemical; conditions: biochemical Lance assay
T1 construct: purchased DPF
How it was run: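 IC50 was fitted to sigmoidal curves of TR-FRET signal (665 and 615 nm emission after 340 nm excitation) from an Eu anti-phospho antibody binding the phosphorylated ULight peptide. The ATP-started reaction ran 1 h at RT and was then quenched with 10 mM EDTA plus antibody for a further 1 h. Compounds were tested as 8-point, 3-fold dilutions.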

H1781 = H1781 CellTiter-Glo; format: cell-based; conditions: NCI-H1781; 72 h compound incubation; read-out: H1781 CTG IC50
Procedure: 2. Measurement of Cellular Activity
The CellTiter-Glo Luminescent Cell Viability Assay (Promega) is a homogeneous method of determining the number of viable cells in culture. It is based on quantification of ATP, indicating the presence of metabolically active cells. Cells are seeded on day 1 at cell numbers that assure assay linearity and optimal signal intensity. After incubation for 24 h in humidified chambers at 37° C. and 5% CO2, compounds in DMSO are added at different concentrations. Cells are further incubated for 72 h at 37° C. and 5% CO2. Cells treated with the compound vehicle DMSO are used as positive controls and cells treated with 10 μM Staurosporine serve as negative controls. At day 5 the CellTiter Glo Reagent is prepared according to the instructions of the kit (Promega Inc.): Reagent is mixed 1:1 with cell culture medium. Thereon, mixture and assay plates are equilibrated at room temperature for 20 min. Equal volumes of the reagent-medium-mixture is added to the volume of culture medium present in each well. The plates are mixed at ˜200 rpm for 2 minutes on an orbital shaker. The microplates are then incubated at room temperature for 10 minutes for stabilization of the luminescent signal. Following incubation the luminescence is recorded on a Victor microplate reader (Perkin Elmer) using a 200 ms integration time. The data is then analyzed with Excel using the XLFIT Plugin (dose response Fit 205) for IC50-determination. As quality control the Z′-factor is calculated from 16 positive and negative control values. Only assay results showing a Z′-factor ≥0.5 are used for further analysis.
(§3) Inhibition is indicated as […] [nM] (“−”=not measured). Compounds having an activity designated as “A” provided an IC50≤100 nM; compounds having an activity designated as “B” provided an 100 nM<IC50≤500 nM; compounds having an activity designated as “C” provided an 500 nM<IC50≤1000 nM; compounds having an activity designated as “D” provided an 1000 nM<IC50≤100000 nM; and compounds having an activity designated as “E” provided an IC50>10000 nM.

EGFR wt = EGFR wt (Homo sapiens, UniProt P00533); assay: EGFR wt Lance assay; format: biochemical
Procedure: as §3

[3] = target: EGFR Exon 20 INSNPH Ba/F3 (Homo sapiens, UniProt P00533, DUP771-773, cells depend on it); assay: EGFR Exon 20 INSNPH Ba/F3 CellTiter-Glo; format: cell-based; conditions: CellTiter-Glo, 72 h, read-out: EGFR Exon 20 INSNPH Ba/F3 CTG IC50
How it was run: as §1

EGFR T790ML858R = EGFR T790ML858R (Homo sapiens, UniProt P00533, L858R/T790M); assay: EGFR T790ML858R Lance assay; format: biochemical
Procedure: as §3

A431 = A431 CellTiter-Glo; format: cell-based; conditions: Homo sapiens, A-431; 72 h compound incubation; read-out: A431 CTG IC50
How it was run: as §2

Sequence of EGFR wt (P00533 25-1210): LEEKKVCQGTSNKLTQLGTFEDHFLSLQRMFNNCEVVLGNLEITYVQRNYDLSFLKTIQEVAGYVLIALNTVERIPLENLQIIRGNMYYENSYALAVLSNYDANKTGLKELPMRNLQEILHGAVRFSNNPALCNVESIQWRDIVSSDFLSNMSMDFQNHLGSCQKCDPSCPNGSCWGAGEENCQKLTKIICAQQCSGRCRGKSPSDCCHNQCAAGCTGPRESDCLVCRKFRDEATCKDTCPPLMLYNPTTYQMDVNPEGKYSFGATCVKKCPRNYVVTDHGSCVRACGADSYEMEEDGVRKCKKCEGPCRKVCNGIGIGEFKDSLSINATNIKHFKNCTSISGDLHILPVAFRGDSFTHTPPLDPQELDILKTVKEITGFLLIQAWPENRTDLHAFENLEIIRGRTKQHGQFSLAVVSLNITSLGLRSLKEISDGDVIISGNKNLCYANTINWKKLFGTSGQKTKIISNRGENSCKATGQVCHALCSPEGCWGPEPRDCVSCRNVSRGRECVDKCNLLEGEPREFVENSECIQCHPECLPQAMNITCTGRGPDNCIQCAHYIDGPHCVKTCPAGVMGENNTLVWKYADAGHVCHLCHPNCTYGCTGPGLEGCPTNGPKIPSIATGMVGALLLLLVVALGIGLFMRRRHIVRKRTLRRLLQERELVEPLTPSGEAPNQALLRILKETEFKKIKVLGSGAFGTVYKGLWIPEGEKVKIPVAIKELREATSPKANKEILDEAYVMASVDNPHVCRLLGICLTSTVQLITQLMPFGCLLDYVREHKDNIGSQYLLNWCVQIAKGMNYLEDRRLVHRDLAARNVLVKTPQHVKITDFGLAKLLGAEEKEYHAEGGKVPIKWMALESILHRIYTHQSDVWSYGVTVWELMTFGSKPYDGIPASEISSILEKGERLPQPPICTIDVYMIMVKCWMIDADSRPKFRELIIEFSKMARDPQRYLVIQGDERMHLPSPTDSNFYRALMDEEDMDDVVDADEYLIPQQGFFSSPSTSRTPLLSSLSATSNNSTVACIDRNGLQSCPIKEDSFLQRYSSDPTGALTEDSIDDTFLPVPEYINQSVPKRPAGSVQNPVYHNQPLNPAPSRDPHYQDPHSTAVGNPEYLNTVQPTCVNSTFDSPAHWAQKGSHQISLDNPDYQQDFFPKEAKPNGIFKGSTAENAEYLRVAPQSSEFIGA
Sequence of Her2 Exon 20 INSYVMA Ba/F3 (P04626 with tags, fused parts or gaps DUP772-775): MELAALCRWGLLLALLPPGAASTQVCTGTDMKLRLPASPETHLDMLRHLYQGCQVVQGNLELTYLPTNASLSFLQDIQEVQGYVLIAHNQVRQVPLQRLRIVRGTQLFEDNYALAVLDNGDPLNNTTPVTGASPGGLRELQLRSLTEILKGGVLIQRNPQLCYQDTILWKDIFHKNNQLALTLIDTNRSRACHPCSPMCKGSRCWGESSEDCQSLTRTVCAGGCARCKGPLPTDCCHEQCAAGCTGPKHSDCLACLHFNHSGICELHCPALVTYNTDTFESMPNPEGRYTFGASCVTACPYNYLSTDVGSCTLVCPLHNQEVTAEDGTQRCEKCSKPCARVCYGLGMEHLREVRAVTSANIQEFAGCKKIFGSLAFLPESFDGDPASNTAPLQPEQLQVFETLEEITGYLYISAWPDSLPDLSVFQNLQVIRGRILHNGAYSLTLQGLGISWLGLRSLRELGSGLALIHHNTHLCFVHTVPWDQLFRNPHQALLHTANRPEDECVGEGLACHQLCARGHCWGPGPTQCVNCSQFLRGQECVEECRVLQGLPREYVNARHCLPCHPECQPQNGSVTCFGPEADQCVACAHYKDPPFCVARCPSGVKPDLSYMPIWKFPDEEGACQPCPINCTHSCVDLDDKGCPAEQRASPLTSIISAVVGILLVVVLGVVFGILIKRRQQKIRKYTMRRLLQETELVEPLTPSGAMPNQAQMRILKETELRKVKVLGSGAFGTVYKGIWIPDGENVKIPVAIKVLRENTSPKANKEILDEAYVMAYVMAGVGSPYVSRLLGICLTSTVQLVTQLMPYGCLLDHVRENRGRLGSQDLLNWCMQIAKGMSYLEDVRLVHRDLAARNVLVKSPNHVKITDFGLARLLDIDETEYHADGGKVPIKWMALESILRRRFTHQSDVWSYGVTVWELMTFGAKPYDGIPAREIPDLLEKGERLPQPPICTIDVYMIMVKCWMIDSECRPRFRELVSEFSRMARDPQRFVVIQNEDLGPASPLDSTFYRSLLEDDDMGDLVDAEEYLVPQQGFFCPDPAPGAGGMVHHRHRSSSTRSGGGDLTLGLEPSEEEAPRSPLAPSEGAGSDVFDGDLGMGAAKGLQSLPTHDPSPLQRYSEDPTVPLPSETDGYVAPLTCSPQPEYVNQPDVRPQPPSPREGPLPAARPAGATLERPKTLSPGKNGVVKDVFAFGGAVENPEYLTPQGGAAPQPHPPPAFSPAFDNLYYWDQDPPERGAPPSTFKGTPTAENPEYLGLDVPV
Sequence of EGFR Exon 20 INSNPH Ba/F3 (P00533 with tags, fused parts or gaps DUP771-773): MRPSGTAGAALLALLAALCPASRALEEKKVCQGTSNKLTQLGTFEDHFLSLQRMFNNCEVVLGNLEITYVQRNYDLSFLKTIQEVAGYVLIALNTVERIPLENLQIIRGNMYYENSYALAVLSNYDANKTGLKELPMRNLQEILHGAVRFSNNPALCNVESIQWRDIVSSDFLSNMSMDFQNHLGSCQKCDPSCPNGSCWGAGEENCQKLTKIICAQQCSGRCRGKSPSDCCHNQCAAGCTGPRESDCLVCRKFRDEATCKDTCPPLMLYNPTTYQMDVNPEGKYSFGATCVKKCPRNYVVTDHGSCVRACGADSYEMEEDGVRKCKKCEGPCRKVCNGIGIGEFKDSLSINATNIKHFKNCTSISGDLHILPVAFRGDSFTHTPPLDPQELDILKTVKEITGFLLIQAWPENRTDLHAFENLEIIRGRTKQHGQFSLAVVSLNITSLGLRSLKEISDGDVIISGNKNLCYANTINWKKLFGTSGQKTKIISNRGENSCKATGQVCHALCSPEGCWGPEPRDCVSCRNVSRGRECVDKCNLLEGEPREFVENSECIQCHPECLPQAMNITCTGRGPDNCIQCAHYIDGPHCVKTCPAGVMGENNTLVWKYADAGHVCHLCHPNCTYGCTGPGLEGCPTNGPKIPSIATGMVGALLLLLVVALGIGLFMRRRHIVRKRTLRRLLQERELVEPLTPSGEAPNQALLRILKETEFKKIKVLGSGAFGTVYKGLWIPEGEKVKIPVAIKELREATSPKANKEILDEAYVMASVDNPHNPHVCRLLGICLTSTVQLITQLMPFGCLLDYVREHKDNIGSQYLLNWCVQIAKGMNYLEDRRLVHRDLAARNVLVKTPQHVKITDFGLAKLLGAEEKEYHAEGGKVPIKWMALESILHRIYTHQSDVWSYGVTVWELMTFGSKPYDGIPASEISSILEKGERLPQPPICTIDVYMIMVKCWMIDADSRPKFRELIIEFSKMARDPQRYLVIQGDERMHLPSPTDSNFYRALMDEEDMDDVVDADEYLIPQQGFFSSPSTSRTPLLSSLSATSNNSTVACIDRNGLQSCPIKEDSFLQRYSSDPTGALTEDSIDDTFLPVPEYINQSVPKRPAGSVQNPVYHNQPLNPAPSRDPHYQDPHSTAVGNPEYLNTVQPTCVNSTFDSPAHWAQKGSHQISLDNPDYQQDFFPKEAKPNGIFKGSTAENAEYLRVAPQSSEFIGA
T1 sequence (P04626 with tags, fused parts or gaps INS775YVMA): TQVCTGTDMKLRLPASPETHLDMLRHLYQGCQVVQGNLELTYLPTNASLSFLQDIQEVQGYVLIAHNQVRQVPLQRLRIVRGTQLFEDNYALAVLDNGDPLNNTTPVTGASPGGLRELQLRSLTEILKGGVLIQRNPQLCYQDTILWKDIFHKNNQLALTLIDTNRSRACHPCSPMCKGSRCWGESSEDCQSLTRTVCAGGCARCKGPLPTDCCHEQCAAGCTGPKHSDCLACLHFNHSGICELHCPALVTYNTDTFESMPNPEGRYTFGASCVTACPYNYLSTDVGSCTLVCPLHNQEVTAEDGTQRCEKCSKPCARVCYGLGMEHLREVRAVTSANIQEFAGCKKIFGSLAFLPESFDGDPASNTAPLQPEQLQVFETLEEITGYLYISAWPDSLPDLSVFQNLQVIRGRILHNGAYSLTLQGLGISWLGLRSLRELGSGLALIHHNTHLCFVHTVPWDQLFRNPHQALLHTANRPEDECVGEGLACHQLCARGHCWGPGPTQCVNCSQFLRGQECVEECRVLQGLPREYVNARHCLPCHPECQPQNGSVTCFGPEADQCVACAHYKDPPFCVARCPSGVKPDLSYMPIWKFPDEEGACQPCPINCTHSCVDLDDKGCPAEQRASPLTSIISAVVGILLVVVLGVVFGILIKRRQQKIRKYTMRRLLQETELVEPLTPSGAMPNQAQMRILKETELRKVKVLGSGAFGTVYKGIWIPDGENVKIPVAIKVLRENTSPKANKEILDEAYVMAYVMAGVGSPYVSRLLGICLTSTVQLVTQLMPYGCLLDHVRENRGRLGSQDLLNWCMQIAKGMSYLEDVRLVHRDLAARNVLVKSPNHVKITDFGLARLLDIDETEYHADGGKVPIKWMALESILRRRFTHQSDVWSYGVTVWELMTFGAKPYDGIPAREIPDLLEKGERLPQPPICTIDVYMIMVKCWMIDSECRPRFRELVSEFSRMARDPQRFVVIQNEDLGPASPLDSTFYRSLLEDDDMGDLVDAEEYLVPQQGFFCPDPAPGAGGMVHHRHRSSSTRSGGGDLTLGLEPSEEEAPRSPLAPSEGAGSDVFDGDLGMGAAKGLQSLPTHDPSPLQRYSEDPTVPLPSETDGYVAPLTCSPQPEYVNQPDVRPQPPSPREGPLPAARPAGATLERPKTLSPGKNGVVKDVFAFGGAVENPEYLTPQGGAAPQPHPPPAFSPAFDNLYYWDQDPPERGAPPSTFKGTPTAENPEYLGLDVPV

Row | Compound | GI50 [1] [µM] | Stability in presence of mouse liver microsomes without cofactor NADPH [% remaining after 50 min] [2] [% remaining after 50 min] | IC50 (H1975) [µM] | IC50 (HER2 INS YVMA) [µM] | IC50 (H1781) [µM] | IC50 (EGFR wt) [µM] | GI50 [3] [µM] | IC50 (EGFR T790ML858R) [µM] | IC50 (A431) [µM]
1 | C=CC(=O)Nc1cc(-c2c(-c3ccc(N4CCN(C)CC4)cc3)[nH]c3nccc(Cl)c23)ccc1C [Example 2, N-(5-(4-chloro-2-(4-(4-methylpiperazin-1-yl)phenyl)-1H-pyrrolo[2,3-b]pyridin-3-yl)-2-methylphenyl)acrylamide] | ≤ 0.1 | >99 | ≤ 0.1 | ≤ 0.1 | 0.1 to 0.5 | ≤ 0.1 | ≤ 0.1 | ≤ 0.1 | 0.1 to 0.5
2 | C=CC(=O)N1CCc2ccc(-c3c(-c4ccc(N5CCN(C(C)=O)CC5)cc4)[nH]c4nccc(Cl)c34)cc21 [Example 58, 1-(6-(2-(4-(4-acetylpiperazin-1-yl)phenyl)-4-chloro-1H-pyrrolo[2,3-b]pyridin-3-yl)indolin-1-yl)prop-2-en-1-one] | 1 to 10 | >99 | 0.1 to 0.5 | ≤ 0.1 | 1 to 100 | ≤ 0.1 | 1 to 10 | ≤ 0.1 | 1 to 100
3 | C=CC(=O)N1CCOc2ccc(-c3c(-c4ccc(N5CCN(C)CC5)cc4)[nH]c4nccc(Cl)c34)cc21 [Example 83, 1-(6-(4-chloro-2-(4-(4-methylpiperazin-1-yl)phenyl)-1H-pyrrolo[2,3-b]pyridin-3-yl)-2H-benzo[b][1,4]oxazin-4(3H)-yl)prop-2-en-1-one 2,2,2-trifluoroacetate] | 0.1 to 0.5 | >99 | 0.1 to 0.5 | ≤ 0.1 | 1 to 100 | ≤ 0.1 | 0.1 to 0.5 | ≤ 0.1 | 1 to 100
4 | C=CC(=O)Nc1cc(-c2c(-c3ccc(N4CCN(S(=O)(=O)CC)CC4)cc3)[nH]c3nccc(Cl)c23)ccc1C [Example 15, N-(5-(4-chloro-2-(4-(4-(ethylsulfonyl)piperazin-1-yl)phenyl)-1H-pyrrolo[2,3-b]pyridin-3-yl)-2-methylphenyl)acrylamide] | 0.1 to 0.5 | >99 | ≤ 0.1 | 0.1 to 0.5 | 0.5 to 1 | ≤ 0.1 | 0.1 to 0.5 | ≤ 0.1 | 0.1 to 0.5
5 | C=CC(=O)Nc1cc(-c2c(-c3ccc(CN(C)C)cc3)[nH]c3nccc(Cl)c23)ccc1C [Example 10, N-(5-(4-chloro-2-(4-((dimethylamino)methyl)phenyl)-1H-pyrrolo[2,3-b]pyridin-3-yl)-2-methylphenyl)acrylamide] | ≤ 0.1 | >99 | ≤ 0.1 | ≤ 0.1 | 0.1 to 0.5 | ≤ 0.1 | ≤ 0.1 | ≤ 0.1 | 0.5 to 1
6 | C=CC(=O)Nc1cc(-c2c(-c3ccc(N4CCN(C(C)=O)CC4)cc3)[nH]c3nccc(Cl)c23)ccc1C [Example 8, N-(5-(2-(4-(4-acetylpiperazin-1-yl)phenyl)-4-chloro-1H-pyrrolo[2,3-b]pyridin-3-yl)-2-methylphenyl)acrylamide] | 0.1 to 0.5 | >99 | ≤ 0.1 | ≤ 0.1 | 0.1 to 0.5 | ≤ 0.1 | 0.1 to 0.5 | ≤ 0.1 | 0.1 to 0.5
7 | C=CC(=O)Nc1cc(-c2c(-c3ccc(OCCCN(C)C)cc3)[nH]c3nccc(Cl)c23)ccc1C [Example 13, N-(5-(4-chloro-2-(4-(3-(dimethylamino)propoxy)phenyl)-1H-pyrrolo[2,3-b]pyridin-3-yl)-2-methylphenyl)acrylamide] | 0.1 to 0.5 | 95 | ≤ 0.1 | ≤ 0.1 | 0.1 to 0.5 | ≤ 0.1 | 0.1 to 0.5 | ≤ 0.1 | 0.1 to 0.5
8 | C=CC(=O)N1CCc2ccc(-c3c(-c4ccc(N5CCN(C)CC5)cc4)[nH]c4nccc(Cl)c34)cc21 [Example 56, 1-(6-(4-chloro-2-(4-(4-methylpiperazin-1-yl)phenyl)-1H-pyrrolo[2,3-b]pyridin-3-yl)indolin-1-yl)prop-2-en-1-one] | 0.1 to 0.5 | >99 | ≤ 0.1 | ≤ 0.1 | 0.5 to 1 | ≤ 0.1 | 0.1 to 0.5 | ≤ 0.1 | 0.5 to 1
9 | C=CC(=O)Nc1cc(-c2c(-c3cccc(C(=O)NC4CCN(Cc5ccccc5)CC4)c3)[nH]c3nccc(Cl)c23)ccc1C [Example 48, 3-(3-(3-acrylamido-4-methylphenyl)-4-chloro-1H-pyrrolo[2,3-b]pyridin-2-yl)-N-(1-benzylpiperidin-4-yl)benzamide] | 0.1 to 0.5 | – | ≤ 0.1 | ≤ 0.1 | 0.1 to 0.5 | ≤ 0.1 | 0.1 to 0.5 | ≤ 0.1 | 0.1 to 0.5
10 | C=CC(=O)N1CCOc2ccc(-c3c(-c4ccnc(N5CCN(C)CC5)c4)[nH]c4nccc(Cl)c34)cc21 [Example 98, 1-(6-(4-chloro-2-(2-(4-methylpiperazin-1-yl)pyridin-4-yl)-1H-pyrrolo[2,3-b]pyridin-3-yl)-2H-benzo[b][1,4]oxazin-4(3H)-yl)prop-2-en-1-one 2,2,2-trifluoroacetate] | 0.1 to 0.5 | >99 | 0.1 to 0.5 | ≤ 0.1 | – | ≤ 0.1 | 0.1 to 0.5 | ≤ 0.1 | 0.5 to 1
11 | C=CC(=O)Nc1cc(-c2c(-c3ccc(N4CCN(C)CC4)cc3)[nH]c3ncc(C(=O)OC4CC4)cc23)ccc1C [Example 138, cyclopropyl 3-(3-acrylamido-4-methylphenyl)-2-(4-(4-methylpiperazin-1-yl)phenyl)-1H-pyrrolo[2,3-b]pyridine-5-carboxylate] | 0.1 to 0.5 | >99 | ≤ 0.1 | ≤ 0.1 | – | ≤ 0.1 | 0.1 to 0.5 | ≤ 0.1 | 1 to 100
12 | C=CC(=O)N1CCc2ccc(-c3c(-c4ccc(N5CCN(C(C)C)CC5)cc4)[nH]c4nccc(Cl)c34)cc21 [Example 62, 1-(6-(4-chloro-2-(4-(4-isopropylpiperazin-1-yl)phenyl)-1H-pyrrolo[2,3-b]pyridin-3-yl)indolin-1-yl)prop-2-en-1-one] | 0.1 to 0.5 | >99 | ≤ 0.1 | ≤ 0.1 | – | ≤ 0.1 | 0.1 to 0.5 | ≤ 0.1 | 0.5 to 1
